In patent publication US20110065581A1, “Liquid Compositions Containing S-(+)-Abscisic Acid in Combination with Selected Lipophilic Agents and Methods of their Preparation” (priority 2007, published 2011):
Counter-ions that a name gives are not always drawn.

What was measured:
Rutgers tomato seedlings = test: Transpiration rate of Rutgers tomato seedlings after foliar spray (LiCor 1600 porometer); assay type: in vivo; settings: for Transpiration rate as a percentage of control, Average of days 1, 2, and 3 after treatment: average of days 1-3
Procedure: (§1) Seedlings of Rutgers Tomato were sprayed with 4 ml water or treatment solution at the 3-4 leaf stage and held under well watered conditions in a greenhouse. Transpiration was measured daily for 3 days after treatment with a LiCor 1600 porometer. Transpiration readings were converted to percent of control to compensate for daily differences due to environmental factors like light intensity, humidity, and temperature.

Rutgers Tomato = test: Relative suppression effect of selective S-(+)-ABA formulations on Rutgers Tomato (regression); assay type: in vivo; settings: treatment at 100 ppm
Procedure: as §1

[1] = cited from earlier work

CC1=CC(=O)CC(C)(C)[C@@]1(O)/C=C/C(C)=C\C(=O)O [ABA, ammonium salt of (S)-(+)-abscisic acid]
Transpiration rate as a percentage of the transpiration rate of control plants, 1 day after treatment (Rutgers tomato seedlings; 75 ppm spray, 4 ml, 3-4 leaf stage): 91% | Transpiration rate as a percentage of the transpiration rate of control plants, 2 days after treatment (Rutgers tomato seedlings; 75 ppm spray): 94% | Transpiration rate as a percentage of the transpiration rate of control plants, 3 days after treatment (Rutgers tomato seedlings; 75 ppm spray): 72% | Transpiration rate as a percentage of control, Average of days 1, 2, and 3 after treatment (Rutgers tomato seedlings; 75 ppm spray): 86% | Transpiration rate as a percentage of the transpiration rate of control plants, 1 day after treatment (Rutgers tomato seedlings; 250 ppm spray): 72% | Transpiration rate as a percentage of the transpiration rate of control plants, 2 days after treatment (Rutgers tomato seedlings; 250 ppm spray): 102% | Transpiration rate as a percentage of the transpiration rate of control plants, 3 days after treatment (Rutgers tomato seedlings; 250 ppm spray): 75% | Transpiration rate as a percentage of control, Average of days 1, 2, and 3 after treatment (Rutgers tomato seedlings; 250 ppm spray): 83% | Transpiration rate as a percentage of the transpiration rate of control plants, 1 day after treatment (Rutgers tomato seedlings; 750 ppm spray): 60% | Transpiration rate as a percentage of the transpiration rate of control plants, 2 days after treatment (Rutgers tomato seedlings; 750 ppm spray): 83% | Transpiration rate as a percentage of the transpiration rate of control plants, 3 days after treatment (Rutgers tomato seedlings; 750 ppm spray): 68% | Transpiration rate as a percentage of control, Average of days 1, 2, and 3 after treatment (Rutgers tomato seedlings; 750 ppm spray): 70% | Transpiration rate as a percentage of the transpiration rate of control plants, 1 day after treatment (Rutgers tomato seedlings; 2500 ppm spray): 36% | Transpiration rate as a percentage of the transpiration rate of control plants, 2 days after treatment (Rutgers tomato seedlings; 2500 ppm spray): 35% | Transpiration rate as a percentage of the transpiration rate of control plants, 3 days after treatment (Rutgers tomato seedlings; 2500 ppm spray): 43% | Transpiration rate as a percentage of control, Average of days 1, 2, and 3 after treatment (Rutgers tomato seedlings; 2500 ppm spray): 38% | Effect of spraying on transpiration (in words) (Rutgers tomato seedlings; Rutgers tomato seedlings, spray): reduced transpiration in a dose dependant manner | Equivalent to s-ABA (ppm) ABA (ppm) (Rutgers Tomato; Rutgers Tomato, regression): 100 ppm | Log[ABA] (Rutgers Tomato; log of equivalent s-ABA ppm): 2.00 | (Regression) Calculated Enhancement (Rutgers Tomato; relative to 100 ppm ABA): 1.00

CC1=CC(=O)CC(C)(C)[C@@]1(O)/C=C/C(C)=C\C(=O)O [abscisic acid, S-(+)-abscisic acid]
solubility in hard water (in words) ([1]; hard water, compared with pure water): even less | highest concentration that can be achieved in pure water ([1]; pure water at room temperature): about 3000 ppm | water solubility ([1]; water at 24° C.): ~3 grams/1000 mL
